Experimental data as given in patent US11802120B2, “Fused cyclic urea derivatives as CRHR2 antagonist” (RaQualia Pharma Inc., priority 2018, dated 2023).

Target: T1, human CRHR2-alpha (Homo sapiens, UniProt Q13324)
T1 sequence (Q13324 1-411): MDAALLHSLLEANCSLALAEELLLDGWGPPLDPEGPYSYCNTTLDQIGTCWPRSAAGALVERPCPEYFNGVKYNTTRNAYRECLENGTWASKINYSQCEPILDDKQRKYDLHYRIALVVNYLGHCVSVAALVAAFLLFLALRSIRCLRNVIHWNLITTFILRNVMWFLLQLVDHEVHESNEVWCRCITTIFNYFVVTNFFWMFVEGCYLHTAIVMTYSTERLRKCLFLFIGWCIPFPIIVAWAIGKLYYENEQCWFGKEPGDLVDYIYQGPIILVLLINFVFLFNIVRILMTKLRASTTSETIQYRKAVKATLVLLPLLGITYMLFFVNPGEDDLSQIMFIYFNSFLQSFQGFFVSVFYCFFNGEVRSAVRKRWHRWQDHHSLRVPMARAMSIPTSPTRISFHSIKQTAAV
Assay: cAMP functional assay for human CRHR2 (LANCE Ultra cAMP, TR-FRET)
Type: cell-based
Details: CHO-K1 cells expressing human CRHR2-alpha, agonist human urocortin2 at EC80, cAMP; read-out: IC50 against CRHR2
How it was run: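 CHO-K1 stable lines; 4,000 cells/well; compound 30 min, 25° C; EC80 agonist (human urocortin2 → CRHR2, CRF → CRHR1) 30 min, 25° C; buffer HBSS/0.1% BSA/0.5 mM IBMX/5 mM Hepes pH 7.4; Eu-cAMP tracer + ULight antibody 60 min; TR-FRET read; IC50 from % inhibition curves.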

IC50	Structure (SMILES)
< 300 nM	Cc1ncc(Cl)cc1C(=O)N[C@H]1CC[C@H](Cn2c(=O)n(-c3cnc4c(cnn4C)c3)c3ccccc32)CC1 [Example 163, 5-chloro-2-methyl-N-((1r,4r)-4-((3-(1-methyl-1H-pyrazolo [3,4-b]pyridin-5-yl)-2-oxo-2,3-dihydro-1H-benzo[d]imidazol-1-yl)methyl)cyclo-hexyl)nicotinamide]
< 300 nM	Cc1ncc(Cl)cc1C(=O)N[C@H]1CC[C@H](Cn2c(=O)n(-c3ccc4c(c3)oc(=O)n4C)c3ccccc32)CC1 [Example 164, 5-chloro-2-methyl-N-((1r,4r)-4-((3-(3-methyl-2-oxo-2,3-dihydrobenzo[d]oxazol-6-yl)-2-oxo-2,3-dihydro-1H-benzo [d]imidazol-1-yl)methyl)cyclo-hexyl)nicotinamide]
< 300 nM	Cc1ncc(Cl)cc1C(=O)N[C@H]1CC[C@H](Cn2c(=O)n(-c3ccc4nccnc4c3)c3ccccc32)CC1 [Example 165, 5-chloro-2-methyl-N-((1r,4r)-4-((2-oxo-3-(quinoxalin-6-yl)-2,3-dihydro-1H-benzo[d]imidazol-1-yl)methyl)cyclo-hexyl)nicotinamide]
< 300 nM	CCn1nc2ccccc2c1C(=O)N[C@H]1CC[C@H](Cn2c(=O)n(-c3ccc(C(=O)NC)nc3)c3ccccc32)CC1 [Example 166, 2-ethyl-N-((1r,4r)-4-((3-(6-(methylcarbamoyl)pyridin-3-yl)-2-oxo-2,3-dihydro-1H-benzo [d]imidazol-1-yl)methyl)cyclo-hexyl)-2H-indazole-3-carboxamide]
< 300 nM	Cc1ncc(Cl)cc1C(=O)N[C@H]1CC[C@H](Cn2c(=O)n(C3COc4ccccc4C3)c3ccccc32)CC1 (stereo partly drawn) [Example 167, 5-chloro-N-((1r,4r)-4-((3-(chroman-3-yl)-2-oxo-2,3-dihydro-1H-benzo[d]imidazol-1-yl)methyl)cyclo-hexyl)-2-methylnicotinamide]
< 300 nM	Cc1ncc(Cl)cc1C(=O)N[C@H]1CC[C@H](Cn2c(=O)n(-c3ccc4c(c3)nc(C)n4C)c3ccccc32)CC1 [Example 168, 5-chloro-N-((1r,4r)-4-((1′,2′-dimethyl-2-oxo-1′H-[1,5′-bibenzo[d]imidazol]-3(2H)-yl)methyl)cyclohexyl)-2-methylnicotinamide]
< 300 nM	Cc1ncc(Cl)cc1C(=O)N[C@H]1CC[C@H](Cn2c(=O)n(-c3ccc4c(c3)n(C)c(=O)n4C)c3ccccc32)CC1 [Example 169, 5-chloro-N-((1r,4r)-4-((1′,3′-dimethyl-2,2′-dioxo-2′,3′-dihydro-1′H-[1,5′-bibenzo [d]imidazol]-3(2H)-yl)methyl)cyclohexyl)-2-methylnicotinamide]
< 300 nM	Cc1ncc(Cl)cc1C(=O)N[C@H]1CC[C@H](Cn2c(=O)n(-c3ccc4[nH]nc(C)c4c3)c3ccccc32)CC1 [Example 170, 5-chloro-2-methyl-N-((1r,4r)-4-((3-(3-methyl-1H-indazol-5-yl)-2-oxo-2,3-dihydro-1H-benzo[d]imidazol-1-yl)methyl)cyclohexyl)nicotinamide]
< 300 nM	Cc1ncc(Cl)cc1C(=O)N[C@H]1CC[C@H](Cn2c(=O)n(-c3ccc4c(C)noc4c3)c3ccccc32)CC1 [Example 171, 5-chloro-2-methyl-N-((1r,4r)-4-((3-(3-methylbenzo[d]isoxazol-6-yl)-2-oxo-2,3-dihydro-1H-benzo[d]imidazol-1-yl)methyl)cyclo-hexyl)nicotinamide]
< 300 nM	Cc1ncc(Cl)cc1C(=O)N[C@H]1CC[C@H](Cn2c(=O)n(-c3cnc4c(C)n[nH]c4c3)c3ccccc32)CC1 [Example 172, 5-chloro-2-methyl-N-((1r,4r)-4-((3-(3-methyl-1H-pyrazolo[4,3-b]pyridin-6-yl)-2-oxo-2,3-dihydro-1H-benzo[d]imidazol-1-yl)methyl)cyclohexyl)nicotinamide]
< 300 nM	Cc1ncc(Cl)cc1C(=O)N[C@H]1CC[C@H](Cn2c(=O)n(-c3ccc(C(=O)Nc4ccn(C)n4)nc3)c3ccccc32)CC1 [Example 173, 5-(3-(((1r,4r)-4-(5-chloro-2-methylnicotinamido)cyclohexyl)methyl)-2-oxo-2,3-dihydro-1H-benzo[d]imidazol-1-yl)-N-(1-methyl-1H-pyrazol-3-yl)picolinamide]
< 300 nM	Cc1ncc(Cl)cc1C(=O)N[C@H]1CC[C@H](Cn2c(=O)n(-c3ccc(C(=O)Nc4ccccn4)nc3)c3ccccc32)CC1 [Example 174, 5-(3-(((1r,4r)-4-(5-chloro-2-methylnicotinamido)cyclo-hexyl)methyl)-2-oxo-2,3-dihydro-1H-benzo[d]imidazol-1-yl)-N-(pyridin-2-yl) picolinamide]
< 300 nM	Cc1ncc(Cl)cc1C(=O)N[C@H]1CC[C@H](Cn2c(=O)n(-c3ccc(C(=O)Nc4cccnn4)nc3)c3ccccc32)CC1 [Example 175, 5-(3-(((1r,4r)-4-(5-chloro-2-methylnicotinamido)cyclo-hexyl)methyl)-2-oxo-2,3-dihydro-1H-benzo[d]imidazol-1-yl)-N-(pyridazin-3-yl) picolinamide]
< 300 nM	Cc1ncc(Cl)cc1C(=O)N[C@H]1CC[C@H](Cn2c(=O)n(-c3ccc(C(=O)NCc4ccon4)nc3)c3ccccc32)CC1 [Example 176, 5-(3-(((1r,4r)-4-(5-chloro-2-methylnicotinamido)cyclo-hexyl)methyl)-2-oxo-2,3-dihydro-1H-benzo[d]imidazol-1-yl)-N-(isoxazol-3-ylmethyl) picolinamide]
< 300 nM	Cc1ncc(Cl)cc1C(=O)N[C@H]1CC[C@H](Cn2c(=O)n(-c3ccc(C(=O)Nc4cccnc4)nc3)c3ccccc32)CC1 [Example 177, 5-(3-(((1r,4r)-4-(5-chloro-2-methylnicotinamido)cyclo-hexyl)methyl)-2-oxo-2,3-dihydro-1H-benzo[d]imidazol-1-yl)-N-(pyridin-3-yl) picolinamide]
< 300 nM	Cc1ncc(Cl)cc1C(=O)N[C@H]1CC[C@H](Cn2c(=O)n(-c3ccc(C(=O)Nc4cncnc4)nc3)c3ccccc32)CC1 [Example 178, 5-(3-(((1r,4r)-4-(5-chloro-2-methylnicotinamido)cyclo-hexyl)methyl)-2-oxo-2,3-dihydro-1H-benzo[d]imidazol-1-yl)-N-(pyrimidin-5-yl) picolinamide]
< 300 nM	Cc1ncc(Cl)cc1C(=O)N[C@H]1CC[C@H](Cn2c(=O)n(-c3ccc(C(=O)NCc4cocn4)nc3)c3ccccc32)CC1 [Example 179, 5-(3-(((1r,4r)-(5-chloro-2-methylnicotinamido)cyclo-hexyl)methyl)-2-oxo-2,3-dihydro-1H-benzo[d]imidazol-1-yl)-N-(oxazol-4-ylmethyl) picolinamide]
< 300 nM	Cc1csc(CNC(=O)c2ccc(-n3c(=O)n(C[C@H]4CC[C@H](NC(=O)c5cc(Cl)cnc5C)CC4)c4ccccc43)cn2)n1 [Example 180, 5-(3-(((1r,4r)-4-(5-chloro-2-methylnicotinamido)cyclo-hexyl)methyl)-2-oxo-2,3-dihydro-1H-benzo[d]imidazol-1-yl)-N-((4-methylthiazol-2-yl)methyl)picolinamide]
< 300 nM	Cc1ncc(Cl)cc1C(=O)N[C@H]1CC[C@H](Cn2c(=O)n(-c3ccc(C(=O)Nc4ccncc4)nc3)c3ccccc32)CC1 [Example 181, 5-(3-(((1r,4r)-4-(5-chloro-2-methylnicotinamido)cyclo-hexyl)methyl)-2-oxo-2,3-dihydro-1H-benzo[d]imidazol-1-yl)-N-(pyridin-4-yl) picolinamide]
< 300 nM	CCNC(=O)c1ccc(-n2c(=O)n(C[C@H]3CC[C@H](NC(=O)c4cc(Cl)cnc4C)CC3)c3ccccc32)cn1 [Example 182, 5-(3-(((1r,4r)-4-(5-chloro-2-methylnicotinamido)cyclo-hexyl)methyl)-2-oxo-2,3-dihydro-1H-benzo[d]imidazol-1-yl)-N-ethylpicolinamide]
< 300 nM	Cc1ncc(Cl)cc1C(=O)N[C@H]1CC[C@H](Cn2c(=O)n(-c3ccc(C(=O)Nc4cc[nH]n4)nc3)c3ccccc32)CC1 [Example 183, 5-(3-(((1r,4r)-4-(5-chloro-2-methylnicotinamido)cyclo-hexyl)methyl)-2-oxo-2,3-dihydro-1H-benzo[d]imidazol-1-yl)-N-(1H-pyrazol-3-yl) picolinamide]
< 300 nM	Cc1ncc(Cl)cc1C(=O)N[C@H]1CC[C@H](Cn2c(=O)n(C3Cc4ccccc4C3)c3ccccc32)CC1 [Example 184, 5-chloro-N-((1r,4r)-4-((3-(2,3-dihydro-1H-inden-2-yl)-2-oxo-2,3-dihydro-1H-benzo [d]imidazol-1-yl)methyl)cyclohexyl)-2-methyl-nicotinamide]
< 300 nM	Cc1ncc(Cl)cc1C(=O)N[C@H]1CC[C@H](Cn2c(=O)n(-c3ccc4nn(C)c(C)c4c3)c3ccccc32)CC1 [Example 185, 5-chloro-N-((1r,4r)-4-((3-(2,3-dimethyl-2H-indazol-5-yl)-2-oxo-2,3-dihydro-1H-benzo[d]imidazol-1-yl)methyl)cyclohexyl)-2-methylnicotinamide]
< 300 nM	Cc1ncc(Cl)cc1C(=O)N[C@H]1CC[C@H](Cn2c(=O)n(-c3ccc4nccn4c3)c3ccccc32)CC1 [Example 186, 5-chloro-N-((1r,4r)-4-((3-(imidazo[1,2-a]pyridin-6-yl)-2-oxo-2,3-dihydro-1H-benzo [d]imidazol-1-yl)methyl)cyclohexyl)-2-methylnico-tinamide]
